# Measured values published in publication PMC3799725, “Detection of Active Matriptase Using a Biotinylated Chloromethyl Ketone Peptide” (PLoS ONE, 2013).
# Where no end group is shown, it is not given here. The star is where a group is joined. Biotin = O=C1N[C@H]2[C@H](CS[C@H]2CCCCC(=O)*)N1
# Columns and labels:
# [1] = test system: murine matriptase (primary keratinocytes); details: representative of 2 independent experiments; for labeling of matriptase in matriptase-deficient (KO) murine keratinocytes: lysates or pull downs (figure 6 lanes 4-6 and 10-12)
# matriptase SPD = assay: Chromogenic assay: inhibition of matriptase SPD cleavage of S2288; details: representative of 3 independent experiments
# matriptase-HAI-1 complex = assay: Reaction with / effect on matriptase-HAI-1 complex in Caco-2 cells (pH 6.0-induced)
Compound,"labeling of matriptase on WT murine keratinocytes by control peptide ([1]; 50 µM control peptide, WT keratinocytes (figure 6 lane 3))",labeling of matriptase in matriptase-deficient (KO) murine keratinocytes [1],"inhibition of peptidolytic activity of matriptase SPD after pre-incubation of inhibitor (matriptase SPD; 5 nM inhibitor pre-incubated 60 min at 37°C, 0.2 nM SPD, Hepes pH 7.4, S2288 300 µM, 405 nm)","inhibition of peptidolytic activity of matriptase SPD (matriptase SPD; 5 nM inhibitor, no pre-incubation (0 min), 0.2 nM SPD, Hepes pH 7.4, 10 min at 37°C, S2288 300 µM, 405 nm)","inhibition of matriptase SPD after pre-incubation of inhibitor (matriptase SPD; 50 µM inhibitor pre-incubated in aqueous solution 180 min at 37°C, 0.2 nM SPD, Hepes pH 7.4, 10 min at 37°C, S2288 300 µM, 405 nm)","inhibition of matriptase SPD cleavage of chromogenic substrate at pH 6.0 (matriptase SPD; 50 µM inhibitor, 20 mM citric acid pH 6.0, 140 mM NaCl, 0.1% BSA, 10 min at 37°C, S2288 300 µM)","labeling of matriptase after pH 6.0 pre-treatment (matriptase-HAI-1 complex formed) (matriptase-HAI-1 complex; 50 µM, 30 min at 37°C at pH 7.4 after 30 min pre-treatment at pH 6.0 (figure 4 lane 9))","labeling of matriptase-HAI-1 complex (matriptase-HAI-1 complex; Caco-2, 50 µM, 30 min at 37°C, conclusion from pH 6.0 pre-treatment)",dissociation of matriptase-HAI-1 complex (matriptase-HAI-1 complex; under the conditions used in the study)
Biotin-RQRR [biotin-RQRR],No matriptase was detected,No matriptase could be detected in lysates or pull downs,–,–,–,–,–,–,–
O=C(CCCC[C@@H]1SC[C@@H]2NC(=O)N[C@@H]21)NCCSSCCC(=O)ON1C(=O)CC(S(=O)(=O)[O-])C1=O.[Na+] (some centres unmarked) [S-NHS-SS-biotin],–,No matriptase could be detected in lysates or pull downs,–,–,–,–,–,–,–
biotin-Arg-Gln-Arg-Arg-chloromethyl ketone,–,No matriptase could be detected in lysates or pull downs,fully inhibiting the peptidolytic activity,fully inhibiting the peptidolytic activity,still sufficient to efficiently inhibit the activity,no cleavage of the substrate was observed,but not when the cells had been exposed to pH 6.0 for 30 min,matriptase-HAI-1 complex is not labeled,not able to dissociate the matriptase-HAI-1 complex
